Experimental data from US5972945A, “2-aminoalkylaminoquinolines; dopamine receptor subtype specific ligands” (Neurogen Corporation, priority 1998, dated 1999).

Legend:
[1] = test system: D4 receptor; test: D4 receptor binding (3H-YM 09151-2 displacement); set-up: species or system African Green monkey; conditions: for D4: Table 2, compounds of U.S. Pat. No. 5,093,333 (Saab), parameter and unit not given; for Ki: Table 1, 0.5 nM 3H-YM 09151-2, COS cells with recombinant receptor
Protocol: (§1) Pellets of COS cells containing recombinantly produced D2 or D4 receptors from African Green monkey were used for the assays. The sample is homogenized in 100 volumes (w/vol) of 0.05 M Tris HCl buffer at 4° C. and pH 7.4. The sample is then centrifuged at 30,000×g and resuspended and rehomogenized. The sample is then centrifuged as described and the final tissue sample is frozen until use. The tissue is resuspended 1:20 (wt/vol) in 0.05 M Tris HCl buffer containing 100 mM NaCl.
(§2) Incubations are carried out at […] and contain 0.4 ml of tissue sample, 0.5 nM ^3 H-YM 09151-2 and the compound of interest in a total incubation of 1.0 ml. Nonspecific binding is defined as that binding found in the presence of […]; without further additions nonspecific binding is less than 20% of total binding. Binding characteristics of various compounds of the invention for D2 and D4 receptor subtypes are shown in Table 1 for […].

[2] = test system: M1 Muscarinic subtype; test: M1 muscarinic subtype assay essentially as in U.S. Pat. No. 5,093,333; type: binding
Protocol: (§3) Various compounds of the invention were also evaluated in M1 and M2 Muscarinic subtype assays essentially as set forth in U.S. Pat. No. 5,093,333.

[3] = test system: M2 Muscarinic subtype; test: M2 muscarinic subtype assay essentially as in U.S. Pat. No. 5,093,333; type: binding
Protocol: as §3

[4] = target: T1, D2 receptor (Chlorocebus aethiops, UniProt P52702); test: D2 receptor binding (3H-YM 09151-2 displacement); set-up: species or system African Green monkey; conditions: Table 1; 0.5 nM 3H-YM 09151-2, COS cells with recombinant receptor
T1 construct: expressed in transfected cells; host or cells: COS cells
Protocol: as §1, §2

[5] = Table 2, compounds of U.S. Pat. No. 5,093,333 (Saab), parameter and unit not given

T1 sequence (P52702 whole entry): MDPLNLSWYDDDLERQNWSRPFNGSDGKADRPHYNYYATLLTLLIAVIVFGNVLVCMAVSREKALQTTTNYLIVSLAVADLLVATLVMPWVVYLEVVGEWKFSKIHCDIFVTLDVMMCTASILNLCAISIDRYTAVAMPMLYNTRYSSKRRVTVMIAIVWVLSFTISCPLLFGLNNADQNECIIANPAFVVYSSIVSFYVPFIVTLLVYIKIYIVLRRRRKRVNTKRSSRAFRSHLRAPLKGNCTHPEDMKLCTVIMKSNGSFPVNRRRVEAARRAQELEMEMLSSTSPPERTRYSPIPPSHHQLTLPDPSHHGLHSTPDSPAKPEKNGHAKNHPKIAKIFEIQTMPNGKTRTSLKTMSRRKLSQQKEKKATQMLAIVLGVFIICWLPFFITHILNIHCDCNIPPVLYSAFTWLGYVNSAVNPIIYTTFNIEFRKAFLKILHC

Row | Compound | D4 [1] | M1 [2, 5] | M2 [3, 5] | Ki [1] [nM] | M1 ([2]; Table 1, parameter not stated) [nM] | M2 ([3]; Table 1, parameter not stated) [nM] | Ki [4] [nM]
1 | Cc1cc(NCCCN2CCOCC2)nc2ccccc12 | > 1000 | 1200 | 2500 | – | – | – | –
2 | c1ccc(N2CCN(CCNC3=Nc4ccccc4CC3)CC2)nc1 [Compound 2, 2-3,4-dihdroquinolyl(2-(4-(2-pyridyl)piperazinyl)ethyl)amine] | – | – | – | 30 | – | – | –
3 | Fc1cnc(N2CCN(CCNC3=Nc4ccccc4CC3)CC2)nc1 [Compound 3, 2-3,4-dihydroquinoly(2-(4-(5-fluoropyrimidin-2-yl)piperazinyl)ethyl)amine] | – | – | – | 8 | 128 | 144 | –
4 | Cc1cccc(N2CCN(CCCNc3ccc4ccccc4n3)CC2)c1C [Compound 21, (3-(4-(2,3-dimethylphenyl)piperazinyl)propyl)2-quinolylamine] | – | – | – | 22 | – | – | > 100
5 | Cc1cc(NCCCN2CCN(c3ncccn3)CC2)nc2ccccc12 [Compound 22, (4-methyl(2-quinolyl))(3-(4-(pyrimidin-2-yl)piperazinyl)propyl)amine] | – | – | – | 10 | – | – | 3300
6 | c1ccc2nc(NCCCN3CCOCC3)ccc2c1 [Saab Example 2] | > 1000 | 2500 | 11600 | – | – | – | –
7 | Cc1cc(NCCCN2CCN(C)CC2)nc2ccccc12 [Saab Example 3] | > 1000 | 600 | 2800 | – | – | – | –
8 | Cc1cc(NCCCN2CCCC2=O)nc2ccccc12 [Saab Example 7] | > 1000 | 1300 | 20000 | – | – | – | –
